Data taken from US9526680B2, “Method for searching for malodor control agent, malodor control agent, and malodor control method” (Kao Corporation, priority 2010, dated 2016).

Columns and labels:
OR51I2 = target: T1, OR51I2 (Homo sapiens, UniProt Q9H344); assay: Luciferase reporter gene assay, OR51I2 expressed in HEK293 cells; format: cell-based; conditions: for Inhibition ratio of OR51I2 response: response to hexanoic acid, test substance added together with hexanoic acid, HEK293
T1 construct: expressed in transfected cells; host or cells: HEK293
T1 sequence (Q9H344 1-312): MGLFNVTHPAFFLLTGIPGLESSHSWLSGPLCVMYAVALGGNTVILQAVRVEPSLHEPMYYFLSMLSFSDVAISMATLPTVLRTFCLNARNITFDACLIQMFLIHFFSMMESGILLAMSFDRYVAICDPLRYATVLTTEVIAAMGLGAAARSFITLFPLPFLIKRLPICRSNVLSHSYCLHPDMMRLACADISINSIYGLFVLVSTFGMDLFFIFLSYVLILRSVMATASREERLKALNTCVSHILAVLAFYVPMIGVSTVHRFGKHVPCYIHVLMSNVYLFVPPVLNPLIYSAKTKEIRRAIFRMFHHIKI
Method: (§1) Cloning of human olfactory receptors was performed based on the sequence information registered in GenBank, through PCR with human genomic DNA female (G1521: Promega) as a template. Each of the genes amplified through PCR was inserted into a pENTR vector (Invitrogen) according to an instruction manual. Then, the gene-inserted vector was digested with NotI and AscI, and the obtained fragments were inserted into NotI and AscI sites located downstream of the Flag-Rho tag sequence in the pME18S vector.
(§2) Each of the 350 types of human olfactory receptors was expressed in HEK293 cells. A reaction solution having a composition shown in Table 2 was prepared on a clean bench, and left to stand for 15 minutes. The solution was dispensed to each well of a 96-well plate (BD). Subsequently, […] cells (100 μL, 3×10^5 cells/cm^2) were seeded in each well and cultured for 24 hours in an incubator at 37° C. and under 5% CO2 conditions.
(§3) The olfactory receptor expressed in HEK293 cell was conjugated with cell-intrinsic Gas to activate adenylate cyclase, and thereby the level of intracellular cAMP was increased. For the measurement of the response to odor in this study, the luciferase reporter gene assay was used, in which an increase in the amount of intracellular cAMP was monitored by using the emission value originating from firefly luciferase gene (fluc2P-CRE-hygro) as an indicator. Furthermore, a gene product obtained by fusing renilla luciferase gene in the downstream of CMV promoter (hRluc-CMV) was simultaneously introduced, and this was used as an internal standard for correcting an error in the transgenesis efficiency or the number of cells. The medium was removed from the culture prepared in the above-described section 3) by using a Pipetman, and 75 μl of a solution containing an odor substance (1 mM hexanoic acid or 300 μM nonanoic acid) prepared in CD293 medium (Invitrogen) was added thereto. The cells were cultured for 4 hours in a CO2 incubator, and the luciferase gene was sufficiently expressed in the cells. For the measurement of luciferase activity, the measurement was carried out by using a Dual-Glo™ luciferase assay system (Promega) according to the operation manual of the product. A value calculated by dividing the emission value, derived from a firefly luciferase induced by the stimulation with an odor substance, by the emission value in cells that were not-stimulated with an odor substance, was designated as a fold increase, and used as an index of response intensity.
(§4) OR2W1, OR10A6, OR51E1, OR51I2, and OR51L1 were respectively expressed in HEK293 cells by the same method as that used in Example 1, and a luciferase assay was carried out. In the luciferase assay, hexanoic acid was used as the odorous substance, and test substances were added together with hexanoic acid. The response of the olfactory receptors to hexanoic acid was measured, and a decrease in the receptor response to the addition of test substances was evaluated.
(§5) The inhibition ratios of the receptor response to test substances were calculated as follows. The emission value (Y) obtained from the cells in which the same receptors were introduced but no odor stimulation was conducted, was subtracted from the emission value derived from firefly luciferase (X) induced by odor stimulation with hexanoic acid alone. Similarly, the emission value (Y) obtained from the cells in which no odor stimulation was conducted, was subtracted from the emission value (Z) caused by stimulation with a mixture of hexanoic acid and a test substance. By the following calculation formula, the inhibitory activity of the test substance to receptor response was calculated based on the increment of the emission value (X−Y) caused by stimulation of hexanoic acid alone. Multiple independent experiments were performed in duplicate, and the average of each experiment was obtained. Inhibition ratio (%)={1−(Z−Y)/(X−Y)}×100 […]

OR51L1 = target: T2, OR51L1 (Homo sapiens, UniProt Q8NGJ5); assay: Luciferase reporter gene assay, OR51L1 expressed in HEK293 cells; format: cell-based; conditions: response to hexanoic acid; test substance added together with hexanoic acid; HEK293
T2 construct: expressed in transfected cells; host or cells: HEK293
T2 sequence (Q8NGJ5 1-315): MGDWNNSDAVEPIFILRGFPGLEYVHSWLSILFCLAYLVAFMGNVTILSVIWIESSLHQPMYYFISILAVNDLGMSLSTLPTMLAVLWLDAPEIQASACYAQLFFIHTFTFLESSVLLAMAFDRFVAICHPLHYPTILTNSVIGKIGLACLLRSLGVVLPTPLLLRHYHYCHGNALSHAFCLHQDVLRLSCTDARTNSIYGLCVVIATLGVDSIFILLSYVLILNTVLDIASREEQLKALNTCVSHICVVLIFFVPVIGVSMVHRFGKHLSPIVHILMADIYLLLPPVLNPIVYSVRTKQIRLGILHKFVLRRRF
Method: as §1, §2, §3, §4, §5

[1] = Sensory evaluation test of hexanoic acid odor inhibition; format: in vivo; conditions: for Intensity of odor: hexanoic acid odor, malodor alone rated as 5, 0 to 10 points, test substance diluted 100 times with propylene glycol, three panelists; for Inhibition of hexanoic acid odor (in words): sensory test, test substance diluted 100 times with propylene glycol (FIG. 5, Table 4)
Method: Cotton balls were introduced into a glass bottle (Hakuyo Glass Co., Ltd. No. 11, capacity 110 ml), and hexanoic acid diluted 100 times with propylene glycol, nonanoic acid diluted 10 times with propylene glycol, or isovaleric acid diluted 1000 times with propylene glycol, as a malodor, and a test substance were added dropwise in an amount of […] to the cotton balls. The glass bottle was left to stand overnight at room temperature, and the odor molecules were sufficiently volatilized in the glass bottle. A sensory evaluation test was carried out by a panel of three panelists (5 panelists for isovaleric acid), and while the intensity of odor in the case of adding dropwise the malodor alone was rated as 5, the intensity of the malodor in the case of incorporating a test substance was evaluated on the basis of a system of 20 grades from 0 point to 10 points (0.5 points per grade).
Regarding the test substance, florhydral (Givaudan SA), bourgeonal (Givaudan SA), hydroxycitronellal (Givaudan SA, International Flavors & Fragrances, Inc., and the like), 4-isopropylcyclohexanecarbaldehyde (synthesized according to a method described in JP-A-2-188549), 4-(2-methoxyphenyl)-2-methyl-2-butanol (JP-A-9-111281), florosa (Givaudan SA), isocyclocitral (Givaudan SA, International Flavors & Fragrances, Inc., and the like), tripral (International Flavors & Fragrances, Inc.), and Pollenal II (Kao Corp.), which had been diluted 100 times with propylene glycol, were used for hexanoic acid; florhydral that had been diluted 10 times with propylene glycol was used for nonanoic acid; and florhydral that had been diluted 1000 times with propylene glycol was used for isovaleric acid.

OR2W1 = target: T3, OR2W1 (Homo sapiens, UniProt Q9Y3N9); assay: Luciferase reporter gene assay, OR2W1 expressed in HEK293 cells; format: cell-based; conditions: response to hexanoic acid; test substance added together with hexanoic acid; HEK293
T3 construct: expressed in transfected cells; host or cells: HEK293
T3 sequence (Q9Y3N9 1-320): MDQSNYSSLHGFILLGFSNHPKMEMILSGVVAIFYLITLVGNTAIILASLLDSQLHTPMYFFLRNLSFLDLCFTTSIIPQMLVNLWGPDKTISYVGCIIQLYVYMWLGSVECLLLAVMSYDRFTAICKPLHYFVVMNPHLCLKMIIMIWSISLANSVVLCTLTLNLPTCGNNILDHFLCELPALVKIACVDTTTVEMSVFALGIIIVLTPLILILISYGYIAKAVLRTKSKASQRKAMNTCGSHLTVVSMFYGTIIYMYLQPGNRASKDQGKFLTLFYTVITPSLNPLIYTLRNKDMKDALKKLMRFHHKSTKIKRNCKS
Method: as §1, §2, §3, §4, §5

OR51E1 = target: T4, OR51E1 (Homo sapiens, UniProt Q8TCB6); assay: Luciferase reporter gene assay, OR51E1 expressed in HEK293 cells; format: cell-based; conditions: for Inhibition ratio of OR51E1 response: response to hexanoic acid, test substance added together with hexanoic acid, HEK293
T4 construct: expressed in transfected cells; host or cells: HEK293
T4 sequence (Q8TCB6 1-318): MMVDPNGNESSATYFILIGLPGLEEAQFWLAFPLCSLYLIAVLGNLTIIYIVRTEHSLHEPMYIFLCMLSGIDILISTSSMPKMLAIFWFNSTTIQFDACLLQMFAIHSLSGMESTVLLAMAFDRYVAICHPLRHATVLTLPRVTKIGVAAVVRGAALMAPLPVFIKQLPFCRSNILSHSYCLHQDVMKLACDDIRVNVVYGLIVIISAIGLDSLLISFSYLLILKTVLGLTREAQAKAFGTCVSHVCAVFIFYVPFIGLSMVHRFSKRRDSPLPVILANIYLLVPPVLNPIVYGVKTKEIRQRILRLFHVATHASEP
Method: as §1, §2, §3, §4, §5

[2] = fold increase of luciferase emission, 1 mM hexanoic acid or 300 μM nonanoic acid, or concentration series up to 1000 μM

Row | SMILES | Inhibition ratio of OR51I2 response (OR51I2) | Intensity of odor [1] | Inhibition of hexanoic acid odor (in words) [1] | further results
1 | CC(C)C1CCC(C)(CO)CC1 (stereo not shown) [4-Isopropyl-1-methylcyclohexylmethanol, 4-isopropyl-1-methylcyclohexylmethanol] | 2 (Inhibition ratio: 20% to 50%) | – | – | –
2 | CC1=CC(C)C(C=O)CC1 (stereo not shown) [Tripral, 2,4-dimethyl-3-cyclohexane-1-carboxyaldehyde] | – | 2.00 | inhibit the hexanoic acid odor | Inhibition ratio of OR51L1 response (OR51L1): 2 (Inhibition ratio: 20% to 50%)
3 | COc1ccccc1CCC(C)(C)O [4-(2-Methoxyphenyl)-2-methyl-2-butanol, 4-(2-methoxyphenyl)-2-methyl-2-butanol] | – | 3.88 | inhibit the hexanoic acid odor | Inhibition ratio of OR2W1 response (OR2W1): 1 (Inhibition ratio: 50% or higher)
4 | CC(CC=O)CCCC(C)(C)O (stereo not shown) [Hydroxycitronellal, 3,7-dimethyl-7-hydroxyoctanal] | 2 (Inhibition ratio: 20% to 50%) | 2.25 | inhibit the hexanoic acid odor | Inhibition ratio of OR51L1 response (OR51L1): 2 (Inhibition ratio: 20% to 50%); Inhibition ratio of OR51E1 response (OR51E1): 2 (Inhibition ratio: 20% to 50%)
5 | Cc1cccc(CC(C)(C)CO)c1 [Majantol, 2,2-dimethyl-3-(3-methylphenyl)propanol] | – | – | – | Inhibition ratio of OR2W1 response (OR2W1): 2 (Inhibition ratio: 20% to 50%)
6 | CC(C)Cc1ccc(CC(C)C=O)cc1 (stereo not shown) [Suzaral, 3-(4-isobutylphenyl)-2-methyl-propionaldehyde] | 2 (Inhibition ratio: 20% to 50%) | – | – | –
7 | COC(C)(C)CCCC(C)CC=O (stereo not shown) [Methoxycitronellal, 7-methoxy-3,7-dimethyloctanal] | 1 (Inhibition ratio: 50% or higher) | – | – | Inhibition ratio of OR51L1 response (OR51L1): 1 (Inhibition ratio: 50% or higher); Inhibition ratio of OR51E1 response (OR51E1): 1 (Inhibition ratio: 50% or higher)
8 | CC1(C)CCCC2=C1CC(C=O)CC2 (stereo not shown) [Cyclemon A, 1,2,3,4,5,6,7,8-octahydro-8,8-dimethyl-2-naphthalenecarboxyaldehyde] | – | – | – | Inhibition ratio of OR2W1 response (OR2W1): 1 (Inhibition ratio: 50% or higher)
9 | CC(C)C1CCC(C=O)CC1 (stereo not shown) [4-Isopropylcyclohexanecarbaldehyde, 4-isopropylcyclohexanecarbaldehyde] | 2 (Inhibition ratio: 20% to 50%) | 2.17 | inhibit the hexanoic acid odor | –
10 | CC(C)=CCCC(C)CC=O (stereo not shown) [Citronellal, 3,7-dimethyl-6-octenal] | – | – | – | Inhibition ratio of OR51E1 response (OR51E1): 2 (Inhibition ratio: 20% to 50%)
11 | CC(C)c1ccc(C=O)cc1 [Cuminaldehyde, 4-isopropylbenzaldehyde] | 2 (Inhibition ratio: 20% to 50%) | – | – | –
12 | CC(C)CC(=O)O [isovaleric acid, reference compound] | – | – | – | Response of OR51E1 to the odor substance (OR51E1; [2]): concentration-dependent response; Response of OR51I2 to the odor substance (OR51I2; [2]): concentration-dependent response
13 | CC(C=O)C1CCCCC1 (stereo not shown) [Pollenal II, 2-cyclohexylpropanal] | – | 2.08 | inhibit the hexanoic acid odor | Inhibition ratio of OR51E1 response (OR51E1): 2 (Inhibition ratio: 20% to 50%)
14 | CC(C=O)Cc1ccc(C(C)(C)C)cc1 (stereo not drawn) [Lilial, p-tert-butyl-α-methylhydrocinnamaldehyde] | 2 (Inhibition ratio: 20% to 50%) | – | – | Inhibition ratio of OR2W1 response (OR2W1): 2 (Inhibition ratio: 20% to 50%)
15 | CC(C=O)Cc1ccc(C(C)C)cc1 (stereo not shown) [Cyclamen aldehyde, 3-(4-isopropylphenyl)-2-methylpropanal] | 2 (Inhibition ratio: 20% to 50%) | – | – | –
